# Experimental data reported in patent publication US20200009168A1, “MICROBIOME REGULATORS AND RELATED USES THEREOF” (KALEIDO BIOSCIENCES, INC., priority 2015, published 2020).
# What was measured:
# Format in all cases: cell-based
# [1] = system: Clostridium scindens ATCC 35704 "CSC.32"; experiment: Sugar-supported growth of commensal bacteria, CSC.32; conditions: 0.5% w/v sugar, 37° C., 18-24 hours, anaerobic; OD600 divided by OD600 with 0.5% w/v dextrose
# Method: (§1) An in vitro assay was performed to assess the ability of various bacterial strains, including commensals of the gastrointestinal tract, to utilize different sugars as growth substrates. This assay was designed to assess the ability of selected natural monosaccharides, disaccharides and synthetic sugars to promote the growth of microbiota associated with a healthy state. Bacterial strains were handled at all steps in an anaerobic chamber (AS-580, Anaerobe Systems) featuring a palladium catalyst. The chamber was initially made anaerobic by purging with an anaerobic gas mixture of 5% hydrogen, 5% carbon dioxide and 90% nitrogen and subsequently maintained in an anaerobic state using this same anaerobic gas mixture. Anaerobicity of the chamber was confirmed daily using Oxoid anaerobic indicator strips that change color in the presence of oxygen. All culture media, assay plates, other reagents and plastic consumables were pre-reduced in the anaerobic chamber for 24-48 hours prior to contact with bacteria. Sugars were prepared at 5% w/v in water, filter-sterilized and added to Costar 3370 assay plates for a final concentration of 0.5% w/v in the assay, with each microbiome regulator assayed in two non-adjacent wells and dextrose and water supplied as positive and negative controls.
# (§2) Bacterial isolates were obtained from the American Type Culture Collection (ATCC) and Leibniz Institute DSMZ-German Institute of Microorganisms and Cell Cultures (DSMZ). Cultures of the Bacteroidetes Bacteroides caccae ATCC 43185 “BCA.26”, Bacteroides thetaiotaomicron ATCC 29741 “BTH.8”, Bacteroides cellulosilyticus DSM 14838 “BCE.71”, Parabacteroides distasonis ATCC 8503 “PDI.6” and Prevotella copri DSM 18205 “PCO.72”; the Clostridiales Clostridium scindens ATCC 35704 “CSC.32”, Dorea formicigenerans ATCC 27755 “DFO.36” and Ruminococcus obeum ATCC 29714 “ROB.74”; and the Bifidobacteria Bifidobacterium longum ATCC 15707 “BLO.16” and Bifidobacterium longum DSM 20088 “BLO.83”, were grown anaerobically in Chopped Meat Glucose broth (CMG, Anaerobe Systems), a pre-reduced enriched medium including lean ground beef, enzymatic digest of casein, yeast extract, potassium phosphate, dextrose, cysteine, hemin and Vitamin K1, for 18-48 hours at 37° C. Inocula were prepared by determining the optical density of each culture at […] (OD600) in a Costar 3370 polystyrene 96-well flat-bottom assay plate using a Biotek Synergy 2 plate reader with Gen5 2.0 All-In-One Microplate Reader Software according to manufacturer's protocol, and diluting the cells to OD600 0.01 final in defined and semi-defined media that were prepared without sugars. D. formicigenerans, P. distasonis and B. longum isolates were tested in 900 mg/L sodium chloride, 26 mg/L calcium chloride dihydrate, 20 mg/L magnesium chloride hexahydrate, 10 mg/L manganese chloride tetrahydrate, 40 mg/L ammonium sulfate, 4 mg/L iron sulfate heptahydrate, 1 mg/L cobalt chloride hexahydrate, 300 mg/L potassium phosphate dibasic, 1.5 g/L sodium phosphate dibasic, 5 g/L sodium bicarbonate, 0.125 mg/L biotin, 1 mg/L pyridoxine, […], 75 mg/L histidine, 75 mg/L glycine, 75 mg/L tryptophan, 150 mg/L arginine, 150 mg/L methionine, 150 mg/L threonine, 225 mg/L valine, 225 mg/L isoleucine, 300 mg/L leucine, 400 mg/L cysteine, and 450 mg/L proline (Theriot C M et al. Nat Commun. 2014; 5:3114), supplemented with 0-3.5% (v/v) CMG. B. thetaiotaomicron, B. caccae and B. cellulosyliticus were tested in 100 mM potassium phosphate buffer (pH 7.2), 15 mM sodium chloride, 8.5 mM ammonium sulfate, 4 mM L-cysteine, 1.9 μM hematin, 200 μM L-histidine, 100 μM magnesium chloride, 1.4 μM iron sulfate heptahydrate, 50 μM calcium chloride, 1 μg/mL vitamin K3 and 5 ng/mL vitamin B12 (Martens E C et al. Cell Host & Microbe 2008; 4, 447-457). […]
# panel of 10 commensals = experiment: Sugar-supported growth, whole panel of 10 commensals; conditions: 0.5% w/v sugar, summary in words
# Method: as §1, §2
# [2] = system: Bacteroides thetaiotaomicron ATCC 29741 "BTH.8"; experiment: Sugar-supported growth of commensal bacteria, BTH.8; conditions: 0.5% w/v sugar, 37° C., 18-24 hours, anaerobic; OD600 divided by OD600 with 0.5% w/v dextrose
# Method: as §1, §2
# [3] = system: Bacteroides caccae ATCC 43185 "BCA.26"; experiment: Sugar-supported growth of commensal bacteria, BCA.26; conditions: 0.5% w/v sugar, 37° C., 18-24 hours, anaerobic; OD600 divided by OD600 with 0.5% w/v dextrose
# Method: as §1, §2
# [4] = system: Parabacteroides distasonis ATCC 8503 "PDI.6"; experiment: Sugar-supported growth of commensal bacteria, PDI.6; conditions: 0.5% w/v sugar, 37° C., 18-24 hours, anaerobic; OD600 divided by OD600 with 0.5% w/v dextrose
# Method: as §1, §2
# [5] = system: Bacteroides cellulosilyticus DSM 14838 "BCE.71"; experiment: Sugar-supported growth of commensal bacteria, BCE.71; conditions: 0.5% w/v sugar, 37° C., 18-24 hours, anaerobic; OD600 divided by OD600 with 0.5% w/v dextrose
# Method: as §1, §2
# [6] = system: Prevotella copri DSM 18205 "PCO.72"; experiment: Sugar-supported growth of commensal bacteria, PCO.72; conditions: 0.5% w/v sugar, 37° C., 18-24 hours, anaerobic; OD600 divided by OD600 with 0.5% w/v dextrose
# Method: as §1, §2
# [7] = system: Bifidobacterium longum ATCC 15707 "BLO.16"; experiment: Sugar-supported growth of commensal bacteria, BLO.16; conditions: 0.5% w/v sugar, 37° C., 18-24 hours, anaerobic; OD600 divided by OD600 with 0.5% w/v dextrose
# Method: as §1, §2
# [8] = system: Dorea formicigenerans ATCC 27755 "DFO.36"; experiment: Sugar-supported growth of commensal bacteria, DFO.36; conditions: 0.5% w/v sugar, 37° C., 18-24 hours, anaerobic; OD600 divided by OD600 with 0.5% w/v dextrose
# Method: as §1, §2
# [9] = system: Ruminococcus obeum ATCC 29714 "ROB.74"; experiment: Sugar-supported growth of commensal bacteria, ROB.74; conditions: 0.5% w/v sugar, 37° C., 18-24 hours, anaerobic; OD600 divided by OD600 with 0.5% w/v dextrose
# Method: as §1, §2
# [10] = system: Bifidobacterium longum DSM 20088 "BLO.83"; experiment: Sugar-supported growth of commensal bacteria, BLO.83; conditions: 0.5% w/v sugar, 37° C., 18-24 hours, anaerobic; OD600 divided by OD600 with 0.5% w/v dextrose
# Method: as §1
# Bacterial isolates were obtained from the American Type Culture Collection (ATCC) and Leibniz Institute DSMZ-German Institute of Microorganisms and Cell Cultures (DSMZ). Cultures of the Bacteroidetes Bacteroides caccae ATCC 43185 “BCA.26”, Bacteroides thetaiotaomicron ATCC 29741 “BTH.8”, Bacteroides cellulosilyticus DSM 14838 “BCE.71”, Parabacteroides distasonis ATCC 8503 “PDI.6” and Prevotella copri DSM 18205 “PCO.72”; the Clostridiales Clostridium scindens ATCC 35704 “CSC.32”, Dorea formicigenerans ATCC 27755 “DFO.36” and Ruminococcus obeum ATCC 29714 “ROB.74”; and the Bifidobacteria Bifidobacterium longum ATCC 15707 “BLO.16” and Bifidobacterium longum DSM 20088 “BLO.83”, were grown anaerobically in Chopped Meat Glucose broth (CMG, Anaerobe Systems), a pre-reduced enriched medium including lean ground beef, enzymatic digest of casein, yeast extract, potassium phosphate, dextrose, cysteine, hemin and Vitamin K1, for 18-48 hours at 37° C. Inocula were prepared by determining the optical density of each culture at […] (OD600) in a Costar 3370 polystyrene 96-well flat-bottom assay plate using a Biotek Synergy 2 plate reader with Gen5 2.0 All-In-One Microplate Reader Software according to manufacturer's protocol, and diluting the cells to OD600 0.01 final in defined and semi-defined media that were prepared without sugars. […]
Structure (SMILES),"Average Normalized Growth (NGV), CSC.32 [1]",taxa or strains of the commensal panel whose growth was supported (panel of 10 commensals),"Average Normalized Growth (NGV), BTH.8 [2]","Average Normalized Growth (NGV), BCA.26 [3]","Average Normalized Growth (NGV), PDI.6 [4]","Average Normalized Growth (NGV), BCE.71 [5]","Average Normalized Growth (NGV), PCO.72 [6]","Average Normalized Growth (NGV), BLO.16 [7]","Average Normalized Growth (NGV), DFO.36 [8]","Average Normalized Growth (NGV), ROB.74 [9]","Average Normalized Growth (NGV), BLO.83 [10]"
OC[C@H]1O[C@@H](O[C@@H]2[C@@H](CO)OC(O)(CO)[C@H]2O)[C@H](O)[C@@H](O)[C@H]1O (mixture of isomers) [lactulose],− (<0.2),supported growth of some strains from the taxa Bacteroidetes and Bifidobacteria,− (<0.2),++ (0.6-1),+ (0.2-0.6),++ (0.6-1),++ (0.6-1),,,,
OC[C@H]1O[C@H](O[C@H]2[C@H](O)[C@@H](O)[C@H](O)O[C@@H]2CO)[C@H](O)[C@@H](O)[C@@H]1O [D (+) maltose],− (<0.2),"supported some commensals from the taxa Bacteroidetes, Firmicutes, including Lachnospiraceae, and Bifidobacteria",+++ (>1),+ (0.2-0.6),++ (0.6-1),++ (0.6-1),+++ (>1),+++ (>1),+++ (>1),,
O=C[C@@H](O)[C@H](O)[C@H](O)CO [D (−) arabinose],++ (0.6-1),supported some commensals from the taxa Bacteroidetes and Firmicutes,++ (0.6-1),++ (0.6-1),− (<0.2),+ (0.2-0.6),− (<0.2),− (<0.2),− (<0.2),++ (0.6-1),
OC[C@@H](O)[C@@H](O)[C@H](O)[C@H](O)CO [D-mannitol],+ (0.2-0.6),supported growth of CSC.32 alone among the panel of 10 commensals,− (<0.2),− (<0.2),− (<0.2),− (<0.2),− (<0.2),− (<0.2),,,
O=C[C@@H](O)[C@@H](O)[C@H](O)[C@H](O)CO [D-mannose],+ (0.2-0.6),supported some commensals from the taxa Bacteroidetes and Firmicutes,+++ (>1),+++ (>1),+++ (>1),+++ (>1),− (<0.2),− (<0.2),− (<0.2),++ (0.6-1),
OC[C@@H](O)[C@@H](O)[C@H](O)[C@@H](O)CO [D-sorbitol],,supported growth of CSC.32 alone among the panel of 10 commensals,,,,,,,,,
O=C[C@H](O)[C@@H](O)[C@H](O)CO [D-xylose],− (<0.2),supported some commensals from the taxa Bacteroidetes and Bifidobacteria,+++ (>1),+++ (>1),+ (0.2-0.6),++ (0.6-1),++ (0.6-1),++ (0.6-1),− (<0.2),− (<0.2),
O=C[C@H](O)[C@@H](O)[C@@H](O)CO [L-arabinose],− (<0.2),"supported some commensals from the taxa Bacteroidetes, Firmicutes, including Lachnospiraceae, and Bifidobacteria",+++ (>1),+++ (>1),− (<0.2),++ (0.6-1),++ (0.6-1),++ (0.6-1),+++ (>1),,− (<0.2)
C[C@H](O)[C@@H](O)[C@@H](O)[C@H](O)C=O [L-fucose],− (<0.2),supported some commensals from the taxa Bacteroidetes and Firmicutes,+ (0.2-0.6),+++ (>1),− (<0.2),+ (0.2-0.6),− (<0.2),− (<0.2),− (<0.2),++ (0.6-1),
O=C[C@H](O)[C@H](O)[C@H](O)CO [ribose],+++ (>1),supported some commensals from the taxa Bacteroidetes and Firmicutes,− (<0.2),− (<0.2),+++ (>1),+ (0.2-0.6),− (<0.2),− (<0.2),+++ (>1),− (<0.2),
OC[C@H]1O[C@H](O[C@]2(CCl)O[C@H](CCl)[C@@H](O)[C@@H]2O)[C@H](O)[C@@H](O)[C@H]1Cl [sucralose],,supported growth of PCO.72 alone among the panel of 10 commensals,,,,,,,,,
OC[C@H]1O[C@@](CO)(O[C@H]2O[C@H](CO)[C@@H](O)[C@H](O)[C@H]2O)[C@@H](O)[C@@H]1O [sucrose],,"supported some commensals from the taxa Bacteroidetes, Firmicutes, including Lachnospiraceae, and Bifidobacteria",,,,,,,,,
